Measured values reported in PubChem BioAssay (NCI).
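Results reflect a 48-hour exposure of cells in 96-well plates to compound at five concentrations. TGI: total growth inhibition.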

What was measured:
Assay in all cases: NCI tumour cell line growth inhibition, 48 h
[1] = test system: 786-0 renal
[2] = test system: A498 renal
[3] = test system: A549 NSCLC
[4] = test system: ACHN renal
[5] = test system: CAKI-1 renal
[6] = test system: CCRF-CEM leukemia
[7] = test system: COLO 205 colon
[8] = test system: DLD-1 colon
[9] = test system: DMS 114 small cell lung
[10] = test system: DMS 273 small cell lung
[11] = test system: EKVX NSCLC
[12] = test system: HCC-2998 colon
[13] = test system: HCT-116 colon
[14] = test system: HCT-15 colon
[15] = test system: HL-60(TB) leukemia
[16] = test system: HOP-18 NSCLC
[17] = test system: HOP-62 NSCLC
[18] = test system: HOP-92 NSCLC
[19] = test system: HT29 colon
[20] = test system: IGROV1 ovarian
[21] = test system: K-562 leukemia
[22] = test system: KM12 colon
[23] = test system: KM20L2 colon
[24] = test system: LXFL 529 NSCLC
[25] = test system: M14 melanoma
[26] = test system: M19-MEL melanoma
[27] = test system: MALME-3M melanoma
[28] = test system: MOLT-4 leukemia
[29] = test system: NCI-H226 lung
[30] = test system: NCI-H23 lung
[31] = test system: NCI-H460 lung
[32] = test system: NCI-H522 lung
[33] = test system: OVCAR-3 ovarian
[34] = test system: OVCAR-4 ovarian
[35] = test system: OVCAR-5 ovarian
[36] = test system: OVCAR-8 ovarian
[37] = test system: RPMI-8226 leukemia
[38] = test system: RXF 393 renal
[39] = test system: SF-268 CNS
[40] = test system: SF-295 CNS
[41] = test system: SF-539 CNS
[42] = test system: SK-MEL-2 melanoma
[43] = test system: SK-MEL-5 melanoma
[44] = test system: SK-OV-3 ovarian
[45] = test system: SN12C renal
[46] = test system: SNB-19 CNS
[47] = test system: SNB-75 CNS
[48] = test system: SNB-78 CNS
[49] = test system: SR leukemia
[50] = test system: SW-620 colon
[51] = test system: TK-10 renal
[52] = test system: U251 CNS
[53] = test system: UACC-257 melanoma
[54] = test system: UACC-62 melanoma
[55] = test system: UO-31 renal
[56] = test system: XF 498 CNS
[57] = test system: LOX IMVI melanoma
[58] = test system: MCF7 breast
[59] = test system: NCI/ADR-RES ovarian
[60] = test system: P388 leukemia
[61] = test system: P388/ADR leukemia
[62] = test system: SK-MEL-28 melanoma
[63] = test system: SN12K1 renal

`CCCCCC(=O)Nc1nc2nc[nH]c2c(=O)[nH]1` was tested, and the TGI [1] was greater than 100 µM, the TGI [2] was greater than 100 µM and the TGI [3] was greater than 100 µM. It also gave a TGI [4] greater than 100 µM, a TGI [5] greater than 100 µM and a TGI [6] greater than 100 µM. The TGI [7] was greater than 100 µM, the TGI [8] was greater than 100 µM and the TGI [9] was greater than 100 µM. It also gave a TGI [10] greater than 100 µM, a TGI [11] greater than 100 µM and a TGI [12] greater than 100 µM. The TGI [13] was greater than 100 µM, the TGI [14] was greater than 100 µM and the TGI [15] was greater than 100 µM. It also gave a TGI [16] greater than 100 µM, a TGI [17] greater than 100 µM and a TGI [18] greater than 100 µM. It also gave a TGI [19] greater than 100 µM, a TGI [20] greater than 100 µM and a TGI [21] greater than 100 µM. It also gave a TGI [22] greater than 100 µM, a TGI [23] greater than 100 µM and a TGI [24] greater than 100 µM. The TGI [25] was greater than 100 µM, the TGI [26] was greater than 100 µM and the TGI [27] was greater than 100 µM. It also gave a TGI [28] greater than 100 µM, a TGI [29] greater than 100 µM and a TGI [30] greater than 100 µM. For the same molecule, the TGI [31] was greater than 100 µM, the TGI [32] was greater than 100 µM and the TGI [33] was greater than 100 µM. For the same molecule, the TGI [34] was greater than 100 µM, the TGI [35] was greater than 100 µM and the TGI [36] was greater than 100 µM. The TGI [37] was greater than 100 µM, the TGI [38] was greater than 100 µM and the TGI [39] was greater than 100 µM. It also gave a TGI [40] greater than 100 µM, a TGI [41] greater than 100 µM and a TGI [42] greater than 100 µM. For the same molecule, the TGI [43] was greater than 100 µM, the TGI [44] was greater than 100 µM and the TGI [45] was greater than 100 µM. For the same molecule, the TGI [46] was greater than 100 µM, the TGI [47] was greater than 100 µM and the TGI [48] was greater than 100 µM. For the same molecule, the TGI [49] was greater than 100 µM, the TGI [50] was greater than 100 µM and the TGI [51] was greater than 100 µM. For the same molecule, the TGI [52] was greater than 100 µM, the TGI [53] was greater than 100 µM and the TGI [54] was greater than 100 µM. For the same molecule, the TGI [55] was greater than 100 µM and the TGI [56] was greater than 100 µM.
For `CCCCN(C)/N=N/c1nc[nH]c1C(N)=O`, the TGI [2] was greater than 100 µM, the TGI [3] was greater than 100 µM and the TGI [5] was greater than 100 µM. For the same molecule, the TGI [6] was greater than 100 µM, the TGI [7] was greater than 100 µM and the TGI [8] was greater than 100 µM. The TGI [9] was greater than 100 µM, the TGI [10] was greater than 100 µM and the TGI [11] was greater than 100 µM. The TGI [12] was greater than 100 µM, the TGI [13] was greater than 100 µM and the TGI [14] was greater than 100 µM. For the same molecule, the TGI [15] was greater than 100 µM, the TGI [16] was greater than 100 µM and the TGI [18] was greater than 100 µM. The TGI [19] was greater than 100 µM, the TGI [20] was greater than 100 µM and the TGI [21] was greater than 100 µM. For the same molecule, the TGI [22] was greater than 100 µM, the TGI [23] was greater than 100 µM and the TGI [57] was greater than 100 µM. The TGI [26] was greater than 100 µM, the TGI [27] was greater than 100 µM and the TGI [58] was greater than 100 µM. For the same molecule, the TGI [28] was greater than 100 µM, the TGI [29] was greater than 100 µM and the TGI [30] was greater than 100 µM. The TGI [31] was greater than 100 µM, the TGI [32] was greater than 100 µM and the TGI [59] was greater than 100 µM. It also gave a TGI [33] greater than 100 µM, a TGI [34] greater than 100 µM and a TGI [35] greater than 100 µM. It also gave a TGI [36] greater than 100 µM, a TGI [60] greater than 100 µM and a TGI [61] greater than 100 µM. The TGI [37] was greater than 100 µM, the TGI [38] was greater than 100 µM and the TGI [39] was greater than 100 µM. It also gave a TGI [40] greater than 100 µM, a TGI [41] greater than 100 µM and a TGI [42] greater than 100 µM. For the same molecule, the TGI [62] was greater than 100 µM, the TGI [43] was greater than 100 µM and the TGI [44] was greater than 100 µM. It also gave a TGI [45] greater than 100 µM, a TGI [63] greater than 100 µM and a TGI [46] greater than 100 µM. It also gave a TGI [47] greater than 100 µM, a TGI [48] greater than 100 µM and a TGI [50] greater than 100 µM. The TGI [52] was greater than 100 µM, the TGI [53] was greater than 100 µM and the TGI [54] was greater than 100 µM. For the same molecule, the TGI [55] was greater than 100 µM and the TGI [56] was 95.5 µM.
